In paper PMC12040169 (PLOS Biology, 2025):

Assay: in vitro
Details: human, hela cells, % viability

Row | Compound | viability at 28.5 h, 10 µM
1 | CCc1nc2ccc(C(=O)Nc3ccc(C(N)=O)cc3)cn2c1N(C)CCC(C)C [CBK145476] | 90.7%
2 | O=C(c1ccc(CO)o1)N1CCn2cc(C(F)(F)F)nc2C1 [CBK283914] | 94%
3 | CC(=O)c1cccc(-c2cnc(N)c(-c3ccc(O)cc3)n2)c1 [CBK122508] | 98.1%
4 | Cc1nn(C)cc1-c1cncn1CCn1nc(C)c(C)c1C [CBK281785] | 108%
5 | C/C(=N\N)c1ccc2[nH]c3c(c2c1)CCC/C3=N\N [CBK261812] | 81.2%
6 | C/C(=N\Nc1nc(C(=O)O)cs1)c1ccccc1 [CBK261633] | 88.7%
7 | CCC1CCCCN1C(=O)c1sc(C)nc1C (stereo not shown) [CBK089359] | 105%
8 | Cc1ccccc1NC(=O)c1cnn2cccnc12 [CBK288217] | 90.3%
9 | O=C(CS(=O)(=O)c1cc2c(N3CCNCC3)nccc2s1)c1ccc(N2CCCC2)cc1 [CBK042232C] | 81.2%
10 | CC1CN(CCOc2ccccc2C=O)CC(C)O1 (stereo not shown) [CBK269687C] | 101%
11 | CC1CCc2c(sc3ncnc(SCC(=O)N(C)CCC#N)c23)C1 (stereo not shown) [CBK305896] | 106%
12 | Cc1cc(Cl)cc(Cl)c1S(=O)(=O)Nc1cccc(C(=O)O)c1 [CBK155682] | 93%
13 | CC1CCN(C(C)Cn2cncc2-c2cnn(C)c2)CC1 (stereo not shown) [CBK281703] | 95.5%
14 | Cc1ccc(C(=O)N2CCN(C(=O)CN3CCN(C)CC3)C2)cc1 [CBK024841C] | 76.4%
15 | CN1CCN(c2nc3c([nH]2)c(=O)n(C)c(=O)n3C)CC1 [CBK269976] | 86.1%
16 | Cc1nc2cccnc2n1C1CCN(C(=O)NCc2ccccc2)CC1 [CBK282291] | 87.5%
17 | O=C(Nc1cccc2[nH]ccc12)c1ccc(Br)cc1Cl [CBK159643] | 78.7%
18 | CCC1=NNC(=O)C(CC(=O)Nc2ccccc2)c2cc(OC)c(OC)cc21 (stereo not shown) [CBK009158] | 92.4%
19 | N/C(=N\OC(=O)c1ccccc1CCc1ccccc1)c1cccnc1 [CBK268188] | 91.5%
20 | O=C(O)CCCc1nc(-c2cnc3n(c2=O)CCS3)no1 [CBK008438] | 90.1%
21 | CCCn1nnc(NC(=O)COc2ccc3ccccc3c2)n1 [CBK265923] | 101%
22 | Cc1cc(C)nc(CCNCc2c(C(C)C)nn(C)c2N(C)C)n1 [CBK305159] | 112%
23 | O=C(NCc1ccco1)c1ccc(-c2ccoc2)nc1 [CBK156279] | 105%

Row | Compound | viability at 28.5 h, 10 µM
24 | COc1cc(NC(=O)CS(=O)(=O)c2ccccc2)c(OC)cc1Cl [CBK269471] | 86.7%
25 | CC(C)(C)OC(=O)NC1CCC(NCc2cc(F)cc(F)c2)CC1 (stereo not shown) [CBK056689] | 91.3%
26 | CN(C)c1ccc(/C=N/NC(=O)CSc2nnc(-c3ccccc3)n2-c2ccccc2)cc1 [CBK262263] | 90.2%
27 | COc1ccc(-n2c(=O)[nH]cc(C(=O)Nc3cccc(Cl)c3C)c2=O)cc1 [CBK287549] | 118%
28 | COc1ccccc1NC(=O)c1ccc(-c2nnc(-c3ccccc3)o2)cc1 [CBK266533] | 107%
29 | COCOc1ccc(-c2nccnc2OC)cc1 [CBK106914] | 111%
30 | O=C(c1cccs1)N1CCCC1c1nc2ccccc2[nH]1 (stereo not shown) [CBK284006] | 81.8%
31 | O=C(Nc1cccc(C(F)(F)F)c1)N1CCN(CCCCc2ccc(F)cc2)CC1 [CBK013363C] | 90.4%
32 | CCOC(NC(=O)Nc1ccc(Br)cc1)(C(F)(F)F)C(F)(F)F [CBK027208] | 91.2%
33 | Cc1ccc(C)c(NC(=O)N2CCC3(CCc4nccc(C)c4C3=O)CC2)c1 [CBK059554] | 91.6%
34 | O=C(NCc1cccnc1)N1CCCCC1CO (stereo not shown) [CBK156169] | 105%
35 | Oc1cccc(Sc2nc3ccccc3nc2C(F)(F)F)c1 [CBK093780] | 109%
36 | CC1CCCC(C)N1C(=O)CN1C2CCC1CC(O)(c1ccco1)C2 (stereo not shown) [CBK284043] | 85.4%
37 | OCCOc1cccc2cccnc12 [CBK001784] | 104%
38 | O=C(c1cccc(-c2ccc(F)cc2)c1)N1CC(O)C1 [CBK281499] | 100%
39 | COCCNc1nc(-c2ccc(N3CCOCC3)cc2)ccc1C(=O)N1CCN(C)CC1 [CBK105943] | 111%
40 | Cc1nn2c3ccccc3nc2n1CCN1CCCCC1 [CBK278256C] | 95.3%
41 | O=C(CSCc1ccc(Cl)c(Cl)c1)Nc1ncccn1 [CBK269998] | 89.7%
42 | CCOC(=O)Nc1ccsc1C(=O)OC [CBK027880] | 88.6%
43 | COc1ccc(-c2ccc(/C=N/N=C3\NC(=O)C(CC(=O)O)S3)o2)c([N+](=O)[O-])c1 (stereo not shown) [CBK264516] | 102%
44 | O=C(CC1S/C(=N/N=C/c2ccc(-c3ccc(Br)cc3)o2)NC1=O)Nc1ccccc1 (stereo not shown) [CBK264499] | 106%
45 | Cc1ccc(N(CC(=O)Nc2ccccc2C(N)=O)S(=O)(=O)c2ccccc2)cc1C [CBK265246] | 94.4%
46 | COc1ccc(C(=O)Nc2ccccc2N2CCN(C)CC2)c(OC)c1 [CBK269763] | 90.4%

Row | Compound | viability at 28.5 h, 10 µM
47 | Cn1cc(CN2CCCN(C(=O)CCCc3ccccn3)CC2)cn1 [CBK305347] | 87.3%
48 | CC(C)CC(NC(=O)c1ccccc1)C(=O)OCC(=O)Nc1nc2ccccc2s1 (stereo not shown) [CBK085134] | 92.5%
49 | Cc1noc(C)c1C(=O)N1CCN(CCc2ccccc2)CC1 [CBK200225] | 95.8%
50 | CC(=O)c1ccc(-c2nccnc2NCC(O)COc2ccccc2)s1 (stereo not shown) [CBK036976] | 107%
51 | O=C(O)CSc1nc2ccc([N+](=O)[O-])cc2s1 [CBK262232] | 88.4%
52 | CCN1CCN(C(=O)c2cccn2C)CC1 [CBK200248] | 84.7%
53 | Cc1ccc2oc([C@H]3CN(C(=O)C4CCN(C(=O)OC(C)(C)C)CC4)C[C@@H]3C(=O)O)cc2c1 [CBK001601] | 90.7%
54 | O=C1NN=C(CSCCO)Oc2ccccc21 [CBK006771] | 88.5%
55 | COc1ccc(OCCN(C)c2cnn(-c3ccc(C(=O)O)cc3)c(=O)c2Cl)cc1 [CBK296627] | 104%
56 | CC(C)(C)NCC(O)COc1cccc2c3c(oc12)CCCC3 (stereo not shown) [CBK008871C] | 90.2%
57 | COc1ccc(CC(=O)N2CC[C@H]3NC(=O)N(c4ccccc4)C(=O)[C@H]32)cc1 [CBK289278] | 92.7%
58 | CCN(CC)CCn1c2ccccc2c2nc(C)sc21 [CBK266628C] | 100%
59 | Cc1ccc(C(=O)Nc2cccc(-n3c(C)nc4ccccc4c3=O)c2)cc1 [CBK287725] | 104%
60 | CN(C)S(=O)(=O)c1cccc(C(=O)NCCc2ccccc2)c1 [CBK267793] | 91.3%
61 | Cc1cc(-c2cn3cc(C(=O)N4CCCC4C)nc3c(=O)n2C)c(C)o1 (stereo not shown) [CBK307038] | 84.8%
62 | Cc1cc(Br)c(O)c(C(=O)N(C)CC(=O)Nc2cc(C)on2)c1 [CBK306002] | 94.8%
63 | C=CCn1c(SCC(=O)Nc2ccc(OC)cc2)nnc1-c1ccncc1 [CBK126824] | 88.9%
64 | CC(C)(C)c1[nH]c2ncccc2c1CN1CCSCC1 [CBK285340] | 93.6%
65 | COc1nccc(N2CCC3(CCC(=O)N(CCO)C3)CC2)c1C#N [CBK307255] | 117%
66 | CCCCNC(=O)c1ccc2nc(CC)c(N(C)CCC(C)C)n2c1 [CBK145477] | 100%
67 | Cc1ccc(C(=O)N2CCN(Cc3ccccc3)CC2)cn1 [CBK200170] | 93.6%
68 | CC(C)(C)OC(=O)NCc1ccc(-c2cc(Nc3cccc(Cl)c3)ncn2)cc1 [CBK037842] | 92.8%
69 | CCC(C)(C)N1CC(=O)N=C1NCCc1ccc(S(N)(=O)=O)cc1 [CBK007750] | 89.6%

Row | Compound | viability at 28.5 h, 10 µM
70 | Cc1ccc(O)c(NC(=O)c2cccc(S(=O)(=O)N3CCCCC3)c2)c1 [CBK267790] | 83.3%
71 | CCCc1c(C(=O)NCCCN(C)C)cnn1-c1cc(Cl)cc(Cl)c1 [CBK107376] | 89.3%
72 | CCOC(=O)NC(=O)Nc1cc2ccccc2c(Br)n1 [CBK063282] | 88.1%
73 | FC(F)(F)c1ccc2c(c1)N(CCCN1CCN(C34CC5CC(CC(C5)C3)C4)CC1)c1ccccc1S2 [CBK261938] | 102%
74 | COc1ccc(-n2nc3cc(C)c(NC(=S)NC(=O)/C=C/c4ccco4)cc3n2)cc1 [CBK264359] | 109%
75 | CCc1onc(C)c1C(=O)N1CCN(C2CCNC2)CC1 (stereo not shown) [CBK304258] | 96%
76 | O=C(C1CCC1)N1CCC(c2nc(Cc3cccs3)no2)C1 (stereo not shown) [CBK283028] | 90.9%
77 | CC1(C)COC(=O)N1C1CCN(C(=O)CCS/C=C\c2ccccc2)CC1 [CBK045134] | 95.3%
78 | Cc1nc2ccc(C(=O)NC(C)Cc3cccs3)cc2[nH]1 (stereo not shown) [CBK282487] | 86.8%
79 | O=C1c2ccccc2CN1c1nccs1 [CBK113184] | 84.8%
80 | COc1ccc(F)c(CN(CC2CCNCC2)C(=O)Nc2ccccc2C(F)(F)F)c1 [CBK049805] | 96.9%
81 | O=C(O)c1ccc(Oc2ccc([N+](=O)[O-])cc2)cc1C(=O)O [CBK260961] | 89%
82 | Cc1ccc([N+](=O)[O-])cc1NC1OCC(O)C(O)C1O (stereo not shown) [CBK262026] | 98.8%
83 | CCCCc1ccc(-c2ccc(-c3cc(C(=O)O)c4cc(C)ccc4n3)o2)cc1 [CBK300528] | 94%
84 | COc1ccc(-c2nnc(SCCC(=O)O)n2C)cc1OC [CBK268902] | 98.8%
85 | CCNc1cncc(-c2ccc(C(N)=O)cc2)n1 [CBK065414] | 96.2%
86 | Cc1noc2nc(C3CCN(C(=O)C4CC4)CC3)cc(C(F)F)c12 [CBK285306] | 95.8%
87 | CN(C)S(=O)(=O)N1CCN(c2ccc([N+](=O)[O-])c(NC3C4CC5CC(C4)CC3C5)c2)CC1 (stereo not shown) [CBK268986] | 102%
88 | CC(C)(C)OC(=O)N1CCCN(Cc2nc(-c3cccnc3)no2)CC1 [CBK305309] | 97.2%
89 | CC(NC(=O)c1ncoc1-c1ccc2ccccc2c1)c1cccnc1 (stereo not shown) [CBK282441] | 94.2%
90 | Nc1ccccc1Sc1ccccn1 [CBK085854] | 103%

Same assay, conditions: human, hela cells, % viability, bulk resorufin, single well

Row | Compound | viability at 28.5 h, 10 µM
91 | N#CC1(c2ccccc2)CCN(C(=O)COc2ccc(F)cc2)CC1 [CBK091387] | 92.6%
